Experimental data: patent publication US11986471B2, “Compounds and methods of use” (Tango Therapeutics, Inc., priority 2018, dated 2024)

Key:
Type in all cases: biochemical
[1] = biological target: T1, PRMT5 (Homo sapiens, UniProt O14744); assay: PRMT5 IC50 assay in the presence of MTA as cofactor; details: for IC50: PRMT5, MTA as cofactor
T1 construct: purchased Viva (custom protein)
Excerpt: (§1) Table 1a indicates IC50 values (μM) against PRMT5 for exemplary compounds in the presence of SAM as cofactor, with no cofactor and with MTA as cofactor, respectively (columns 3-5). […] The Ki values can be calculated from the IC50 values as described in the Examples section. As detailed in the Examples section, for the assay performed in the presence of SAM, IC50=Ki×1.5 (Ki=IC50/1.5). For the assay performed in the presence of MTA, IC50=Ki×13.5 (Ki=IC50/13.5). Column 6 indicates the ratio between the Ki of compounds in the presence of SAM and the Ki of compounds in the presence of MTA

[2] = biological target: T1, PRMT5; assay: PRMT5 IC50 assay with no cofactor
Excerpt: as §1

[3] = biological target: T1, PRMT5; assay: PRMT5 IC50 assay in the presence of SAM as cofactor
Excerpt: as §1

[4] = ratio between Ki in the presence of SAM and Ki in the presence of MTA
[5] = ratio between the Ki in the presence of SAM and the Ki in the presence of MTA

T1 sequence (O14744 whole entry): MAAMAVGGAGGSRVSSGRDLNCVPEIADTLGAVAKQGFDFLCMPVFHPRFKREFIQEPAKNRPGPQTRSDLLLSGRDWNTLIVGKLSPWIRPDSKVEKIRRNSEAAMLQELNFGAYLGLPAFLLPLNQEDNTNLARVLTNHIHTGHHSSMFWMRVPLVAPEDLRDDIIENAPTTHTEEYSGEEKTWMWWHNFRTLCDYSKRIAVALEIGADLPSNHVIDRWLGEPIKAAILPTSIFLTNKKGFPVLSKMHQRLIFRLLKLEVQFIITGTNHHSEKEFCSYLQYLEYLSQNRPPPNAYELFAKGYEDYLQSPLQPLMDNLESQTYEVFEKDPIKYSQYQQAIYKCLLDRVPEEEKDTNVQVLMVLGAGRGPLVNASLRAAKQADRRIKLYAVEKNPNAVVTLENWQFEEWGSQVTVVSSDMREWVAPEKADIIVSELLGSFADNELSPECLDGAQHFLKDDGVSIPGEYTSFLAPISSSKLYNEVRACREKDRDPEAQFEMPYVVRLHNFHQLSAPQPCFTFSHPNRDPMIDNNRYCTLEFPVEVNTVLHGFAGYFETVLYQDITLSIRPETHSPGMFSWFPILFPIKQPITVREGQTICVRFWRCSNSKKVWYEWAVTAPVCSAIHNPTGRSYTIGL
T1 sequence (Q9BQA1 whole entry partner): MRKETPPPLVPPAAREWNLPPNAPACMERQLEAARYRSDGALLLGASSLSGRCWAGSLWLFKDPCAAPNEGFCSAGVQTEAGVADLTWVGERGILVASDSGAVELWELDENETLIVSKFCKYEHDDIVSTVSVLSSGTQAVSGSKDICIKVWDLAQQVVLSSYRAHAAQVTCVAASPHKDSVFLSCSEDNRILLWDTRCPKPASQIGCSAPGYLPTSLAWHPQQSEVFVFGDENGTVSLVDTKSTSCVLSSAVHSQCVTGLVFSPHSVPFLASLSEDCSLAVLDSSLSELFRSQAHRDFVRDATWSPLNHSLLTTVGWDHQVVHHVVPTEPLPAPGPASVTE

IC50 [1] [nM]	IC50 ([2]; read-out: No Co-factor IC50) [µM]	IC50 [3] [nM]	IC50 [2] [µM]	Compound	SAM/MTA Ratio [1, 4]	SAM/MTA Ratio [1, 5]
50 to 500	0.5 to 5	50 to 500	–	CC(=O)N1CC(Nc2cc(C(=O)NCC(O)CN3CCc4nc(OCc5ocnc5C)ccc4C3)nc(N3CCCCC3)n2)C1 (stereo not drawn) [Compound 650]	A (a Ki ratio greater than or equal to 10 fold between the Ki in the presence of SAM and the Ki in the presence of MTA)	–
500 to 5000	≥ 5	500 to 5000	–	Cc1c(OCc2ccnn2C)ccc2c1CCN(C[C@@H](O)CNC(=O)c1ccnc(NC3CCC3)c1)C2 [Compound 161, 2-(cyclobutylamino)-N-[(2S)-2-hydroxy-3-[5-methyl-6-[(2-methylpyrazol-3-yl)methoxy]-3,4-dihydro-1H-isoquinolin-2-yl]propyl]pyridine-4-carboxamide]	A (a Ki ratio greater than or equal to 10 fold between the Ki in the presence of SAM and the Ki in the presence of MTA)	–
500 to 5000	≥ 5	500 to 5000	–	CC(=O)N1CCC(Nc2cc(C(=O)NC[C@H](O)CN3CCc4c(C)c(OCc5ocnc5C)cc(F)c4C3)cc(N3CCCCC3)n2)CC1 [Compound 653]	A (a Ki ratio greater than or equal to 10 fold between the Ki in the presence of SAM and the Ki in the presence of MTA)	–
50 to 500	0.5 to 5	–	–	CC(=O)N1CCC(Nc2cc(C(=O)NCC(O)CN3CCc4nc(OCc5ocnc5C)ccc4C3)cc(N3CCCCC3)n2)CC1 (stereo not drawn) [Compound 654]	–	–
500 to 5000	–	500 to 5000	≥ 5	CC(=O)N1CC(Nc2cc(C(=O)NC[C@H](O)CN3CCc4c(ccc(OCc5cnco5)c4C)C3)ncn2)C1 [Compound 543, 6-[(1-acetylazetidin-3-yl)amino]-N-[(2S)-2-hydroxy-3-{5-methyl-6-[(1,3-oxazol-5-yl)methoxy]-1,2,3,4-tetrahydroisoquinolin-2-yl}propyl]pyrimidine-4-carboxamide]	–	A (a Ki ratio greater than or equal to 10 fold between the Ki in the presence of SAM and the Ki in the presence of MTA)
500 to 5000	–	500 to 5000	≥ 5	O=C(NC[C@H](O)CN1CCc2cc(OCc3cnco3)ccc2C1)c1cc(NC2CCOCC2)ccn1 [Compound 511, (S)—N-(2-hydroxy-3-(6-(oxazol-5-ylmethoxy)-3,4-dihydroisoquinolin-2(1H)-yl)propyl)-4-((tetrahydro-2H-pyran-4-yl)amino)picolinamide]	–	A (a Ki ratio greater than or equal to 10 fold between the Ki in the presence of SAM and the Ki in the presence of MTA)
500 to 5000	–	500 to 5000	≥ 5	Cc1c(OCc2cnco2)ccc2c1CCN(C[C@@H](O)CNC(=O)c1cc(NC3CCOCC3)ccn1)C2 [Compound 573, N-[(2S)-2-hydroxy-3-{5-methyl-6-[(1,3-oxazol-5-yl)methoxy]-1,2,3,4-tetrahydroisoquinolin-2-yl}propyl]-4-[(oxan-4-yl)amino]pyridine-2-carboxamide]	–	A (a Ki ratio greater than or equal to 10 fold between the Ki in the presence of SAM and the Ki in the presence of MTA)
500 to 5000	≥ 5	500 to 5000	–	CC(=O)N1CCC(Nc2cc(C(=O)NC[C@H](O)CN3CCc4c(ccc(OCc5cnnn5C)c4C)C3)ncn2)CC1 [Compound 276, (S)-6-((1-acetylpiperidin-4-yl)amino)-N-(2-hydroxy-3-[5-methyl-6-((1-methyl-1H-1,2,3-triazol-5-yl)methoxy)-3N-dihydroisoquinolin-2(1H)-yl)propyl)pyrimidine-4-carboxamide]	A (a Ki ratio greater than or equal to 10 fold between the Ki in the presence of SAM and the Ki in the presence of MTA)	–
–	–	–	0.5 to 5	CC(=O)N1CC(Nc2cc(C(=O)NCC(O)CN3CCc4cc(OCc5ocnc5C)ccc4C3)nc(N3CCCCC3)c2)C1 (stereo not drawn) [Compound 580]	–	–
50 to 500	–	500 to 5000	≥ 5	CC(=O)N1CC(Nc2cc(C(=O)NC[C@H](O)CN3CCc4cc(OCc5cnco5)ccc4C3)ncn2)C1 [Compound 562, (S)-6-((1-acetylazetidin-3-yl)amino)-N-(2-hydroxy-3-(6-(oxazol-5-ylmethoxy)-3A-dihydroisoquinolin-2(1H)-yl)propyl)pyrimidine-4-carboxamide]	–	A (a Ki ratio greater than or equal to 10 fold between the Ki in the presence of SAM and the Ki in the presence of MTA)
500 to 5000	0.5 to 5	500 to 5000	–	O[C@@H](CNc1nccc(-c2sccc2Br)n1)CN1CCc2cc(OCc3cnco3)ccc2C1 [Compound 331, (S)-1-((4-(3-bromothiophen-2-yl)pyrimidin-2-yl)amino)-3-(6-(oxazol-5-ylmethoxy)-3,4-dihydroisoquinolin-2(1H)-yl)propan-2-ol]	A (a Ki ratio greater than or equal to 10 fold between the Ki in the presence of SAM and the Ki in the presence of MTA)	–
500 to 5000	–	500 to 5000	≥ 5	CC(=O)N1CCC(Nc2cccc(C(=O)NC[C@H](O)CN3CCc4c(ccc(OCc5cnco5)c4C)C3)c2)C1 (stereo partly drawn) [Compound 525, 3-[(1-acetylpyrrolidin-3-yl)amino]-N-[(2S)-2-hydroxy-3-{5-methyl-6-[(1,3-oxazol-5-yl)methoxy]-1,2,3,4-tetrahydroisoquinolin-2-yl}propyl]benzamide]	–	A (a Ki ratio greater than or equal to 10 fold between the Ki in the presence of SAM and the Ki in the presence of MTA)
500 to 5000	≥ 5	500 to 5000	–	O=C(NC[C@H](O)CN1CCc2c(ccc(OCc3cnco3)c2Br)C1)c1cc(NC2CCCCC2)ncn1 [Compound 377, (S)—N-(3-(5-bromo-6-(oxazol-5-ylmethoxy)-3A-dihydroisoquinolin-2(1H)-yl)-2-hydroxypropyl)-6-(cyclohexylamino)pyrimidine-4-carboxamide]	A (a Ki ratio greater than or equal to 10 fold between the Ki in the presence of SAM and the Ki in the presence of MTA)	–
50 to 500	–	500 to 5000	≥ 5	Cc1ncoc1COc1ccc2c(c1C)CCN(C[C@@H](O)CNC(=O)c1cc(NC3CCC3)nc(N3CCCCC3)c1)C2 [Compound 557, 2-(cyclobutylamino)-N-[(2S)-2-hydroxy-3-{5-methyl-6-[(4-methyl-1,3-oxazol-5-yl)methoxy]-1,2,3,4-tetrahydroisoquinolin-2-yl}propyl]-6-(piperidin-1-yl)pyridine-4-carboxamide]	–	A (a Ki ratio greater than or equal to 10 fold between the Ki in the presence of SAM and the Ki in the presence of MTA)
50 to 500	–	500 to 5000	≥ 5	CO[C@H]1C[C@@H](Nc2cc(C(=O)NC[C@H](O)CN3CCc4c(ccc(OCc5cnco5)c4C)C3)ccn2)C1 [Compound 535]	–	A (a Ki ratio greater than or equal to 10 fold between the Ki in the presence of SAM and the Ki in the presence of MTA)
50 to 500	0.5 to 5	50 to 500	–	CC(=O)N1CCC(Nc2cc(C(=O)NC[C@@H](O)CN3CCc4c(C)c(OCc5ocnc5C)cc(F)c4C3)cc(N3CCCCC3)n2)CC1 [Compound 652]	A (a Ki ratio greater than or equal to 10 fold between the Ki in the presence of SAM and the Ki in the presence of MTA)	–
50 to 500	0.5 to 5	50 to 500	–	CCCC(=O)N1CC(Nc2cc(C(=O)NC[C@H](O)CN3CCc4cc(OCc5ocnc5C)c(F)cc4C3)ccn2)C1 [Compound 643, 2-[(1-butanoylazetidin-3-yl)amino]-N-[(2S)-3-[7-fluoro-6-[(4-methyloxazol-5-yl)methoxy]-3,4-dihydro-1H-isoquinolin-2-yl]-2-hydroxy-propyl]pyridine-4-carboxamide]	A (a Ki ratio greater than or equal to 10 fold between the Ki in the presence of SAM and the Ki in the presence of MTA)	–
50 to 500	–	500 to 5000	≥ 5	Cc1c(OCc2cnco2)ccc2c1CCN(C[C@@H](O)CNC(=O)c1ccnc(N[C@H]3C[C@H](CO)C3)c1)C2 [Compound 537, N—((S)-2-hydroxy-3-(5-methyl-6-(oxazol-5-ylmethoxy)-3N-dihydroisoquinolin-2(1H)-yl)propyl)-2-(((1r,3S)-3-(hydroxymethyl)cyclobutyl)amino)isonicotinamide]	–	A (a Ki ratio greater than or equal to 10 fold between the Ki in the presence of SAM and the Ki in the presence of MTA)
500 to 5000	–	500 to 5000	≥ 5	Cc1c(OCc2ccnn2C)ccc2c1CCN(C[C@@H](O)CNC(=O)c1cc(NC3CCC3)ccn1)C2 [Compound 521, (S)-4-(cyclobutylamino)-N-(2-hydroxy-3-(5-methyl-6-((1-methyl-1H-pyrazol-5-yl)methoxy)-3N-dihydroisoquinolin-2(1H)-yl)propyl)picolinamide]	–	A (a Ki ratio greater than or equal to 10 fold between the Ki in the presence of SAM and the Ki in the presence of MTA)
500 to 5000	–	500 to 5000	≥ 5	COCC(=O)N1CC(Nc2cc(C(=O)NC[C@H](O)CN3CCc4c(ccc(OCc5cnco5)c4C)C3)ncn2)C1 [Compound 518, N-[(2S)-2-hydroxy-3-{5-methyl-6-[(1,3-oxazol-5-yl)methoxy]-1,2,3,4-tetrahydroisoquinolin-2-yl}propyl]-6-{[1-(2-methoxyacetyl)azetidin-3-yl]amino}pyrimidine-4-carboxamide]	–	A (a Ki ratio greater than or equal to 10 fold between the Ki in the presence of SAM and the Ki in the presence of MTA)
